± gives the standard deviation of the averaged measurements.
Columns and labels:
MK0752 = compound: O=C(O)CC[C@H]1CC[C@@](c2cc(F)ccc2F)(S(=O)(=O)c2ccc(Cl)cc2)CC1 [MK0752]; assay: surviving fraction relative to DMSO-only wells; higher = less growth inhibition; conditions: exposure time: 5 days
In short: (§1)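 At 250–500 cells per well in 384-well plates, log-phase tumour cell lines were seeded and, 24 hours on, exposed continuously for five days to inhibitors at 0.5, 1, 5, 10, 50, 100, 500 and 1000 nM. Viability readout was CellTiter-Glo luminescence, reported as surviving fraction normalised to the median of DMSO-only wells.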

MK2206 = compound: NC1(c2ccc(-c3nc4ccn5c(=O)[nH]nc5c4cc3-c3ccccc3)cc2)CCC1 [MK2206]; assay: as above; conditions: exposure time: 5 days
In short: as §1

Test System	surviving fraction (MK0752; 0.5 nM)	surviving fraction (MK0752; 1 nM)	surviving fraction (MK0752; 5 nM)	surviving fraction (MK0752; 10 nM)	surviving fraction (MK0752; 50 nM)	surviving fraction (MK0752; 100 nM)	surviving fraction (MK0752; 500 nM)	surviving fraction (MK0752; 1000 nM)	surviving fraction (MK2206; 0.5 nM)	surviving fraction (MK2206; 1 nM)	surviving fraction (MK2206; 5 nM)	surviving fraction (MK2206; 10 nM)	surviving fraction (MK2206; 50 nM)	surviving fraction (MK2206; 100 nM)	surviving fraction (MK2206; 500 nM)	surviving fraction (MK2206; 1000 nM)
HCC1806 BREAST	0.974 ± 0.05	1.15 ± 0.15	1.23 ± 0.1	1.21 ± 0.086	1.28 ± 0.043	1.23 ± 0.14	1.19 ± 0.075	1.25 ± 0.025	1.02 ± 0.074	1.1 ± 0.021	1.15 ± 0.19	1.14 ± 0.05	1.05 ± 0.072	1.02 ± 0.099	0.828 ± 0.013	0.682 ± 0.015
HCC1954 BREAST	0.922 ± 0.069	0.747 ± 0.054	1.18 ± 0.13	1.15 ± 0.15	1 ± 0.05	0.904 ± 0.02	0.741 ± 0.05	0.808 ± 0.073	1.06 ± 0.16	0.988 ± 0.088	1.14 ± 0.14	1.18 ± 0.13	0.896 ± 0.035	0.9938 ± 0.0039	0.482 ± 0.082	0.304 ± 0.0067
HCT15 LARGE INTESTINE	1.1 ± 0.032	1.08 ± 0.05	1.11 ± 0.032	1.09 ± 0.055	1.09 ± 0.029	1.1 ± 0.024	1.09 ± 0.044	1.082 ± 0.0067	1.04 ± 0.042	1.07 ± 0.048	1.08 ± 0.052	1.07 ± 0.064	1.02 ± 0.063	1.07 ± 0.025	0.942 ± 0.073	0.928 ± 0.026
HELA CERVIX	1.07 ± 0.098	1.14 ± 0.056	1.08 ± 0.023	1.09 ± 0.035	1.13 ± 0.16	1.2 ± 0.087	1.2 ± 0.034	1.2 ± 0.09	1.03 ± 0.037	1.15 ± 0.043	1.12 ± 0.073	1.09 ± 0.12	1.02 ± 0.057	1.09 ± 0.035	1.08 ± 0.031	1.19 ± 0.051
HMLE3 BREAST	0.958 ± 0.049	1.06 ± 0.039	1.08 ± 0.024	1.06 ± 0.062	0.999 ± 0.086	1.02 ± 0.066	0.979 ± 0.1	0.978 ± 0.069	1.06 ± 0.11	1.13 ± 0.047	1.08 ± 0.01	1.09 ± 0.044	0.895 ± 0.14	0.843 ± 0.098	0.717 ± 0.052	0.617 ± 0.018
HMT3552 BREAST	1.05	1.07	1.01	0.985	1.04	1.16	1.11	1.12	1.05 ± 0.029	1.05 ± 0.02	1.1 ± 0.03	1.02 ± 0.033	1.03 ± 0.041	0.909 ± 0.076	0.692 ± 0.02	0.62 ± 0.014
HOS BONE	1.03 ± 0.026	1.02 ± 0.037	1.058 ± 0.01	1.04 ± 0.016	1.1 ± 0.024	1.1 ± 0.035	1.03 ± 0.046	1.1 ± 0.023	1.02 ± 0.013	1.03 ± 0.026	1.03 ± 0.0087	1.05 ± 0.038	0.978 ± 0.021	0.948 ± 0.021	0.822 ± 0.038	0.79 ± 0.012
HOSMNG BONE	0.936 ± 0.023	1.02 ± 0.037	0.959 ± 0.052	0.981 ± 0.046	1.05 ± 0.028	1.05 ± 0.029	1.06 ± 0.061	1.04 ± 0.024	0.865 ± 0.1	0.936 ± 0.1	0.907 ± 0.082	0.846 ± 0.1	0.773 ± 0.076	0.802 ± 0.15	0.752 ± 0.064	0.678 ± 0.027
HS57T BREAST	1.09 ± 0.048	1.09 ± 0.059	1.18 ± 0.061	1.14 ± 0.1	1.13 ± 0.048	1.19 ± 0.077	1.02 ± 0.038	1.01 ± 0.046	0.979 ± 0.037	1 ± 0.07	1.02 ± 0.051	1.07 ± 0.056	0.962 ± 0.013	0.938 ± 0.05	0.747 ± 0.012	0.658 ± 0.092
HS578T BREAST	1.02 ± 0.061	0.87 ± 0.15	0.883 ± 0.11	1.01 ± 0.11	0.946 ± 0.046	0.9 ± 0.056	0.833 ± 0.11	0.936 ± 0.12	1.06 ± 0.17	1 ± 0.084	1.02 ± 0.087	1.04 ± 0.15	1.03 ± 0.19	0.829 ± 0.08	0.652 ± 0.064	0.618 ± 0.028
